# In patent publication US20230107216A1, “PANTETHEINE DERIVATIVES AND USES THEREOF” (Comet Therapeutics, Inc., priority 2018, published 2023):
# Like-named read-outs stand apart in the source and are kept apart here.
# Experiments:
# [1] = test system: Methylmalonic Acidemia (MMA) primary fibroblasts GM01673; experiment: Mitochondrial respiration, XFe96 Extracellular Flux Analyzer (OCR/ECAR), MMA fibroblasts GM01673; format: cell-based; details: Homo sapiens, Fibroblast
# Summary of the method: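 Primary fibroblasts (20000 cells/well) were held 24 h in supplemented DMEM before Seahorse OCR/ECAR profiling. Compounds at 10 to 50 μM or 0.1% DMSO were injected after baseline, then oligomycin 1 μg/ml, FCCP, and rotenone/antimycin A 0.5 μM. Values were normalized to Hoechst nuclear counts, baselined to pre-compound, and expressed relative to vehicle.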
# [2] = test system: tyrosine hydroxylase positive mesencephalic neurons injured by 6-OHDA; experiment: Neuroprotective effect on damage induced by 6-OHDA on culture of mesencephalic neurons; format: cell-based; details: Rattus norvegicus, Neuron, 6-OHDA 15 μM, 48h, read-out: % reversion of TH positive neurons (6-OHDA-mediated degradation of dopaminergic neurons)
# Description: The protective effect of compounds of the present disclosure was determined on 6-OHDA-mediated injury on mesencephalon neuronal cultures.
# A female Wistar rat (Janvier; France) of 15 days gestation was terminated by cervical dislocation, the fetuses were removed from the uterus and their brains were harvested and placed in ice-cold medium (Leibovitz's L15 medium, Gibco). Only ventral mesencephalic flexure was used for the cell preparations. The midbrain was dissociated by trypsinization. The reaction was stopped, and the suspension was triturated and centrifuged. The pellet of dissociated cells was resuspended in chemically defined medium consisted of Neurobasal (Gibco, 21103049), containing B27 supplement (Gibco, A3582801) and L-glutamine (Gibco, 25030081), 10 ng/ml (BDNF; Pepro Tech, France, 450-02) and 1 ng/ml (GDNF; Pepro Tech, 450-51).
# Viable primary rat embryo mesencephalic cells were counted and seeded on 96-multi-wells plate precoated with poly-L-lysine. Cells were maintained in a humidified incubator at 37° C. in 5% CO2-95% air atmosphere and medium changed on day 2. On day 6, the culture medium was removed and replaced by new media without neurotrophic factors containing the compounds of the present disclosure (50-10 μM) or vehicle (0.1% DMSO). After 1h exposure, injury of mesencephalon neuronal cultures was induced by 6-OHDA (15 μM) for further 48h. A mixture of the growth factors GDNF (1 ng/ml) and BDNF (10 ng/ml) were used as reference compound. On day 8, the tyrosine hydroxylase positive neurons were evaluated. Cultures were fixed 30 min at 4° C. with paraformaldehyde in PBS (4%, Sigma). After, cells were permeabilized with 0.1% Triton X100 for 30 min, saturated with PBS containing 3% of BSA (bovine serum albumin) and incubated 2h with anti-tyrosine hydroxylase antibody (Sigma, 1:10000; clone TH-2) at 1/10000 in PBS containing 0.5% of BSA. Cells were washed three times with PBS containing 0.5% of BSA and incubated 1h with goat anti mouse antibody coupled with AF488 (Invitrogen A11001) diluted at 1/1000 in PBS containing 0.5% of BSA. Finally, nuclei were stained with DAPI (Thermo fisher, D1306) at 1/1000 in PBS containing 0.5% of BSA. After rinsing with PBS, the plate was visualized and examined with Cell Insight HCS (Thermo Scientific) to determine the number of tyrosine hydroxylase positive cells per well.
# The results for each well were expressed as a percentage by setting the density of tyrosine hydroxylase positive cells under control conditions to 100%. Then the result for each condition was reported as mean±SEM from 4 independent cultures.
# A global analysis of the data was performed using a one-way analysis of variance (ANOVA), followed by Fisher's Protected Least Significant Difference when applicable. The level of significance was set to p<0.05.
# [3] = assay condition D (1 mM glucose, 10% FBS), read-out: Increase in Maximal Respiratory Capacity AUC
# [4] = assay condition A (10 mM glucose, 2 mM L-glutamine, 1 mM pyruvate, 10% FBS), read-out: Increase in Maximal Respiratory Capacity AUC
structure (smiles),measurement,setting,value
"CCCCCCC(=O)SCCNC(=O)CCNC(=O)[C@H](O)C(C)(C)CO [Compound 372, (2R)—N-(2-[[2-(heptanoylsulfanyl)ethyl]carbamoyl]ethyl)-2,4-dihydroxy-3,3-dimethylbutanamide]",activation at 10 µM,"[1]; assay condition A (10 mM glucose, 2 mM L-glutamine, 1 mM pyruvate, 10% FBS), read-out: Increase in Spare Capacity AUC",≥ 10%
"CC(=O)SCCNC(=O)CCNC(=O)[C@H](O)C(C)(C)COC(=O)[C@@H](N)Cc1ccc(O)c(O)c1 [Compound 498, (3R)-3-[(2-[[2-(acetylsulfanyl)ethyl]carbamoyl]ethyl)carbamoyl]-3-hydroxy-2,2-dimethylpropyl (2S)-2-amino-3-(3,4-dihydroxyphenyl)propanoate]",inhibition at 50 µM,[2],≥ 30%
"CC(C)(CO)[C@@H](O)C(=O)NCCC(=O)NCCSC(=O)[C@@H](N)Cc1ccc(O)c(O)c1 [Compound 371, (2R)—N-[2-[(2-[[(2S)-2-amino-3-(3,4-dihydroxyphenyl)propanoyl]sulfanyl]ethyl)carbamoyl]ethyl]-2,4-dihydroxy-3,3-dimethylbutanamide]",inhibition at 50 µM,[2],≥ 30%
same,activation at 10 µM,[1]; [3],≥ 10%
"CC(C)(CO)[C@@H](O)C(=O)NCCC(=O)NCCSC(CC(=O)OCC[N+](C)(C)C)C(=O)O (stereo partly drawn) [Compound 51, [2-([3-carboxy-3-[(2-[3-[(2R)-2,4-dihydroxy-3,3-dimethylbutanamido]propanamido]ethyl)sulfanyl]propanoyl]oxy)ethyl]trimethylazanium]",activation at 10 µM,[1]; [3],≥ 10%
"CC(C)(CO)[C@@H](O)C(=O)NCCC(=O)NCCSC(=O)CCCN [Compound 370, (2R)—N-[2-([2-[(4-aminobutanoyl)sulfanyl]ethyl]carbamoyl)ethyl]-2,4-dihydroxy-3,3-dimethylbutanamide]",inhibition at 50 µM,[2],≥ 30%
same,activation at 10 µM,[1]; [3],≥ 10%
"CC(=O)SCCNC(=O)CCNC(=O)[C@H](O)C(C)(C)COC(=O)[C@H](C)N [Compound 502, (3R)-3-[(2-[[2-(acetylsulfanyl)ethyl]carbamoyl]ethyl)carbamoyl]-3-hydroxy-2,2-dimethylpropyl (2S)-2-aminopropanoate]",activation at 10 µM,[1]; [4],≥ 10%
"CC(C)(CO)[C@@H](O)C(=O)NCCC(=O)NCCSC(=O)CC(=O)CCC(=O)O [Compound 2, 6-[(2-[3-[(2R)-2,4-dihydroxy-3,3-dimethylbutanamido]propanamido]ethyl)sulfanyl]-4,6-dioxohexanoic acid]",activation at 10 µM,"[1]; assay condition D (1 mM glucose, 10% FBS), read-out: Increase in Spare Capacity AUC",≥ 50%
"C[C@@H](O)CC(=O)CC(=O)SCCNC(=O)CCNC(=O)[C@H](O)C(C)(C)CO [Compound 42, (2R)-2,4-dihydroxy-N-[2-[(2-[[(5R)-5-hydroxy-3-oxohexanoyl]sulfanyl]ethyl)carbamoyl]ethyl]-3,3-dimethylbutanamide]",inhibition at 50 µM,[2],≥ 30%
"C[C@@H](O)CC(=O)SCCNC(=O)CCNC(=O)[C@H](O)C(C)(C)CO [Compound 38, S-2-{3-[(R)-2,4-dihydroxy-3,3-dimethylbutyrylamino]propionylamino} ethyl (R)-3-hydroxybutanethioate]",inhibition at 10 µM,[2],≥ 30%
"COC(=O)CC(SCCNC(=O)CCNC(=O)[C@H](O)C(C)(C)COC(C)=O)C(=O)OC (stereo partly drawn) [Compound 149, 1,4-dimethyl 2-[(2-[3-[(2R)-4-(acetyloxy)-2-hydroxy-3,3-dimethylbutanamido]propanamido]ethyl)sulfanyl]butanedioate]",activation at 10 µM,[1]; [3],≥ 10%
"CC(C)(CO)[C@@H](O)C(=O)NCCC(=O)NCCSC(=O)CCC(=O)O [Compound 1, (R)-4-((2-(3-(2,4-dihydroxy-3,3-dimethylbutanamido)propanamido)ethyl)thio)-4-oxobutanoic acid]",inhibition at 10 µM,[2],≥ 10%
"CC(C)(COC(=O)OCC[N+](C)(C)C)[C@@H](O)C(=O)NCCC(=O)NCCSC(=O)CCC(=O)O [Compound 116, [2-([[(3R)-3-[[2-([2-[(3-carboxypropanoyl)sulfanyl]ethyl]carbamoyl)ethyl]carbamoyl]-3-hydroxy-2,2-dimethylpropoxy]carbonyl]oxy)ethyl]trimethylazanium]",inhibition at 10 µM,[2],≥ 30%
"CC(=O)SCCNC(=O)CCNC(=O)[C@H](O)C(C)(C)COC(=O)CN [Compound 560, (3R)-3-[(2-[[2-(acetylsulfanyl)ethyl]carbamoyl]ethyl)carbamoyl]-3-hydroxy-2,2-dimethylpropyl 2-aminoacetate]",inhibition at 10 µM,[2],≥ 30%
COC(=O)CC(C(C)=O)C(=O)SCCNC(=O)CCNC(=O)[C@H](O)C(C)(C)CO (stereo partly drawn) [Compound 410],activation at 50 µM,"[1]; assay condition A (10 mM glucose, 2 mM L-glutamine, 1 mM pyruvate, 10% FBS), 50 μM, read-out: Increase in Spare Capacity AUC",≥ 10%
"CC(C)(CO)[C@@H](O)C(=O)NCCC(=O)NCCSC(=O)CCCO [Compound 1304, (2R)-2,4-dihydroxy-N-[2-([2-[(4-hydroxybutanoyl)sulfanyl]ethyl]carbamoyl)ethyl]-3,3-dimethylbutanamide]",activation at 10 µM,[1]; [4],≥ 10%
"CC(=O)OCC(C)(C)[C@@H](O)C(=O)NCCC(=O)NCCSC(=O)CC(=O)CCC(=O)O [Compound 140, 6-[(2-[3-[(2R)-4-(acetyloxy)-2-hydroxy-3,3-dimethylbutanamido]propanamido]ethyl)sulfanyl]-4,6-dioxohexanoic acid]",inhibition at 50 µM,[2],≥ 30%
